These are literature values, as cited in patent publication US6440438B2, “Covering impregnated with insecticide” (Protec Health International Limited, priority 1997, dated 2002).

For data set [1] the following is noted: placed directly in contact with the skin.
Assay in data set [2]: not given
This is another data set of the same source.

In the case of `CC1(C)C(C=C(Cl)Cl)C1C(=O)OCc1cccc(Oc2ccccc2)c1` (stereo not shown) [Permethrin], the “proportion of the chemical absorbed by the skin” value in data set [1] was “about 0.5%”. Also, the “period within which skin sensations (numbing, burning, tingling) usually subside” value (contact with permethrin, reversible) is given as “twelve”. For the same molecule, the toxicity to humans entry (in vivo) is reported as “not considered toxic”. Further, the solubility in water entry in data set [2] was “does not dissolve in water”.
